Test results as given in patent US11708283B2, “Metal-chelating compositions and their use in methods of removing or inhibiting barium scale” (CORNELL UNIVERSITY, priority 2018, dated 2023).

Assays:
[1] = Thermodynamic stability constants of Ca^2+ complexes by pH-potentiometry; format: binding; conditions: I = 0.1M KCl; for pCa (−log [M^2+]free): [M^2+] = 10^−6M, [L] = 10^−5M, pH 7.4; for pCa (−log [M^2+]free) / log KCaHL / log KCaL: 25° C.; for log K′Ca (conditional stability constant): pH 7.4, 25° C., calculated from protonation and stability constants; for log KCaHL / log KCaL: pH-potentiometry
Description: (§1) Potentiometric measurements were carried out using a titrator equipped with a combination electrode and an exchange unit with an automatic burette (10 mL). The titration vessel was fitted with a removable glass cell (˜70 mL) and was thermostated at 25° C. using a circulating water bath. CO2 was excluded from the vessel prior to and during the titrations using a small positive pressure of Ar that was passed through a solution of 30 wt % KOH. Carbonate-free KOH (˜0.1 M) was prepared by dissolving KOH pellets (semiconductor grade, 99.99% trace metals basis) in freshly boiled water (≥18 MΩ-cm) and was standardized by potentiometric titration against potassium hydrogen phthalate. Hydrochloric acid (0.1 M) was standardized against freshly prepared KOH. Titration solutions were maintained at a constant ionic strength of 0.1 M using KCl (≥99.5%) and were equilibrated for 15 minutes prior to the addition of titrant. Before every titration, the electrode was calibrated in terms of hydrogen ion concentration by titrating a solution of standardized HCl (5 mM) containing supporting electrolyte (95 mM) with standardized KOH (2 mL). Data within the pH ranges of 2.5-3.2 and 10.8-11.2 were analyzed using software to obtain the standard electrode potential (E0) and slope factor. Owing to the sharp rise in pH at the titration endpoint (pH 3.2-10.8), data obtained in this region are subject to significant error and were therefore excluded from the calibration analysis. A pKw value of 13.78 was taken from the literature (Baes, C. F.; Mesmer, R. E. The Hydrolysis of Cations; Wiley: New York, 1976).
(§2) ICP standards of calcium, strontium, and barium in dilute HNO3 were employed in the titrations. The exact amount of HNO3 was determined by potentiometric titration of each metal solution (1 mL), diluted to a known volume with H2O, with standardized KOH to pH ˜7; under these conditions, no precipitation of metal hydroxide species was observed. The data were analyzed using a Gran plot (Gran, G. Analyst 1952, 77, 661-671). Stability constants were measured for the alkaline earth complexes of macropa^2− and macropaquin^2− by adding standardized KOH to a solution (20 mL) containing ligand (0.02 mmol), metal (0.02 mmol), 1 M KCl (1.9 mmol), and a portion of 0.1 M HCl sufficient to bring the total acid content (HCl+HNO3) to 0.1 mmol. The titration method employed either a 0.1 mV/min or 0.2 mV/min drift limit with a maximum wait time of 300 seconds between addition of base and measurement. […] Data points (˜30-90) obtained over the pH ranges of 2.5-10.5 (Ba-macropa), 2.8-10.5 (Sr-macropa), 4.0-10.5 (Ca-macropa), 2.7-11.3 (Ba-macropaquin), and 4.0-11.3 (Sr- and Ca-macropaquin) were included in the refinements. These pH ranges reflect the portion of the titration curves in which metal binding is occurring. Using the protonation constants measured for each ligand, the stability constants (Equations 2-4, below) were calculated from the average of at least 3 independent titrations using appropriate software. Proton concentration was admitted as a refineable parameter. Ligand (L) concentration was taken as the averaged value obtained from the refinements of ligand-only titrations. The errors given for the stability constants correspond to one standard deviation.
(§3) The alkaline earth stability constants for macroquin-SO3^4− were determined using a system in which each ligand titration was paired with a ligand-metal titration. These pairwise titrations permitted the ligand concentration for the metal-ligand titrations to be known with reasonable certainty from the refinement of the ligand-only titrations. Immediately following a titration of the free ligand with HCl, metal ion (0.013 mmol) was added and the solution was equilibrated under Ar for 15 minutes before the addition of standardized KOH. The same titration method was employed as described above for macropa^2− and macropaquin^2−. […]

[2] = Thermodynamic stability constants of Sr^2+ complexes by pH-potentiometry; format: binding; conditions: I = 0.1M KCl; for pSr (−log [M^2+]free): [M^2+] = 10^−6M, [L] = 10^−5M, pH 7.4; for log K′Sr (conditional stability constant): pH 7.4, 25° C., calculated from protonation and stability constants
Description: as §1, §2, §3

[3] = Protonation constants of the ligands by pH-potentiometric titration; format: physicochemical; conditions: for occurrence of the fully deprotonated ligand in solution: ligand speciation versus pH; for log Ka1 / log Ka2 / log Ka3 / log Ka4: pH-potentiometry, 25° C., I = 0.1M KCl
Description: as §1
Stock solutions of macropa and macropaquin were prepared in H2O. […] The exact ligand concentrations were determined from the potentiometric titration curves with KOH. Protonation equilibria of macropa^2− and macropaquin^2− were determined by adding standardized KOH to a solution (20 mL) containing ligand (˜0.02 mmol), 0.1 M HCl (0.1 mmol), and 1 M KCl (1.9 mmol). The titration method employed a 0.1 mV/min drift limit with a maximum wait time of 90 sec between addition of base and measurement. At least 70 data points were collected over the pH range of 2.5-10.5 (macropa) or 2.5-11.3 (macropaquin). The protonation constants, defined in Eq. 1, were calculated from the average of at least 4 independent titrations using the appropriate software.
Both ligand (L) and proton concentrations were admitted as refineable parameters. The errors given for the protonation constants correspond to one standard deviation. The protonation constants measured for macropa^2− were consistent with those previously reported (Roca-Sabio et al., 2009, supra); log Ka5 was not able to be determined under the conditions employed here. Protonation equilibria of macroquin-SO3^4− were determined by titrating standardized HCl (˜5.19 mL) into a solution (62.5 mL) containing ligand (˜0.013 mmol, 10.4 mg), KOH (0.25 mmol), and 1 M KCl (6 mmol). The same titration method was employed as described above for the other two ligands. At least 90 data points over the pH range of 4.0-10.8 were included in the refinement; no additional protonation constants could be refined when data from pH 2.5-3.99 were included. The protonation constants were calculated from the average of 15 independent titrations.

| overall basicity of the ligand, sum of log Ka values [3] | occurrence of the fully deprotonated ligand in solution [3] | log Ka1 [3] | log Ka2 [3] | log Ka3 [3] | log Ka4 [3] | log KCaHL [1] | log KCaL [1] | log KSrHL ([2]; pH-potentiometry, 25° C.) | log KSrL ([2]; pH-potentiometry, 25° C.) | Compound | pCa (−log [M^2+]free) [1] | log K′Ca (conditional stability constant) [1] | pSr (−log [M^2+]free) ([2]; 25° C.) | log K′Sr (conditional stability constant) [2] | further results |
| --- | --- | --- | --- | --- | --- | --- | --- | --- | --- | --- | --- | --- | --- | --- | --- |
| – | – | – | – | – | – | – | – | – | – | O=C(O)CN1CCN(CC(=O)O)CCN(CC(=O)O)CCN(CC(=O)O)CC1 [DOTA, reference compound] | 11.29 | 10.34 | 9.30 | 8.35 | – |
| 27.69 | do not exist in solution below pH 8 | 10.33 | 7.15 | 6.97 | 3.24(4) | 8.59(2) | 5.90(4) | 8.92(2) | 9.19(5) | O=C(O)c1cccc(CN2CCOCCOCCN(Cc3ccc4cccc(O)c4n3)CCOCCOCC2)n1 [macropaquin, 6-((16-((8-hydroxyquinolin-2-yl)methyl)-1,4,10,13-tetraoxa-7,16-diazacyclooctadecan-7-yl)methyl)picolinic acid] | 6.04 | 3.94 | 8.50 | 7.54 | fraction of ligand as monoprotonated species HL^− ([3]; pH 7.4): 56%; log Ka1 ([3]; listed as macropaquin^2−): 10.33(4); log Ka2 ([3]; listed as macropaquin^2−): 7.15(3); log Ka3 ([3]; listed as macropaquin^2−): 6.97(2) |
| 32.14 | do not exist in solution below pH 8 | 9.34 | 9.43 | 6.75 | 6.62 | 8.60(4) | 6.04(8) | 8.34(4) | 8.62(2) | O=S(=O)(O)c1ccc(O)c2nc(CN3CCOCCOCCN(Cc4ccc5c(S(=O)(=O)O)ccc(O)c5n4)CCOCCOCC3)ccc12 [macroquin-SO3, 2,2′-((1,4,10,13-tetraoxa-7,16-diazacyclooctadecane-7,16-diyl)bis(methylene))bis(8-hydroxyquinoline-5-sulfonic acid)] | 6.01 | 3.19 | 6.70 | 5.64 | fraction of ligand present as H2L^2− ([3]; pH 7.4): 78%; log Ka1 ([3]; listed as macroquin-SO3^4−): 9.34(4); log Ka2 ([3]; listed as macroquin-SO3^4−): 9.43(1); log Ka3 ([3]; listed as macroquin-SO3^4−): 6.75(4); log Ka4 ([3]; listed as macroquin-SO3^4−): 6.62(4); log KSrH2L ([2]; pH-potentiometry, 25° C.): 6.920(3) |

| Compound | overall basicity of the ligand, sum of log Ka values [3] | occurrence of the fully deprotonated ligand in solution [3] | log Ka1 [3] | log Ka2 [3] | log Ka3 [3] | log Ka4 [3] | log KCaHL [1] | log KCaL [1] | log KSrHL ([2]; pH-potentiometry, 25° C.) | log KSrL ([2]; pH-potentiometry, 25° C.) | pCa (−log [M^2+]free) [1] | log K′Ca (conditional stability constant) [1] | pSr (−log [M^2+]free) ([2]; 25° C.) | log K′Sr (conditional stability constant) [2] | further results |
| --- | --- | --- | --- | --- | --- | --- | --- | --- | --- | --- | --- | --- | --- | --- | --- |
| O=C(O)c1cccc(CN2CCOCCOCCN(Cc3cccc(C(=O)O)n3)CCOCCOCC2)n1 [macropa, 6,6-((1,4,10,13-tetraoxa-7,16-diazacyclooctadecane-7,16-diyl)bis(methylene))dipicolinic acid] | 19.99 | – | 7.41 | 6.899 | 3.23(1) | 2.45(5) | – | 5.79(1) | 3.35(8) | 9.442(4) | 6.54 | 5.42 | 10.02 | 9.07 | fraction of ligand fully deprotonated (L^2−) ([3]; pH 7.4): 43%; log Ka1 ([3]; listed as macropa^2−): 7.41(1); log Ka2 ([3]; listed as macropa^2−): 6.899(3) |
